Test results reported in US8937072B2, “Substituted cyanoaniline compounds, preparation and use thereof” (Sinochem Corporation, priority 2011, dated 2015).
Several values for one entry are separate records, joined by “and”; a condition that tells them apart may be missing. Identical values can stand only once.

Assays:
cucumber downy mildew = experiment: Protectant activity in vivo (whole plant) against cucumber downy mildew
Experimental: (§1) The method is as followed: The whole plant is used in this test. The compound is dissolved in a proper solvent to get mother solution. The proper solvent is selected from acetone, methanol, DMF and so on according to their dissolving capability to the sample. The volume rate of solvent and testing solution (v/v) is equal to or less than 5%. The mother solution is diluted with water containing 0.1% tween-80 to get the testing solution whose concentration is designed. The testing solution is sprayed to the host plant by a special plant sprayer. The plant is inoculated with fungus after 24 hours. According to the infecting characteristic of fungus, the plant is stored in a humidity chamber and then transferred into greenhouse after infection is finished. And the other plants are placed in greenhouse directly. The activity of compound is obtained by eyeballing after 7 days in common.

corn rust = experiment: Protectant activity in vivo (whole plant) against corn rust; settings: dose 400 mg/L
Experimental: as §1

| Structure (SMILES) | protectant activity against cucumber downy mildew in vivo (cucumber downy mildew; dose 400 mg/L) [%] | further results |
| --- | --- | --- |
| N#Cc1c(F)c(F)c(C#N)c(Nc2ccc([N+](=O)[O-])cc2)c1F [Compound C-70] | 100 | – |
| N#Cc1c(Cl)c(Cl)c(Nc2c(Cl)cc([N+](=O)[O-])cc2Cl)c(Cl)c1C#N [Compound A-44] | 100 | protectant activity against cucumber downy mildew in vivo (cucumber downy mildew; dose 100 mg/L): 100% |
| N#Cc1cc([N+](=O)[O-])cc(Br)c1Nc1c(F)c(C#N)c(F)c(F)c1C#N [Compound C-97] | 100 | – |
| N#Cc1c(Cl)c(Cl)c(C#N)c(Nc2ccc(Cl)c(C(F)(F)F)c2)c1Cl [Compound C-39] | – | protectant activity against corn rust in vivo (corn rust): 100% |
| N#Cc1c(F)c(F)c(C#N)c(Nc2c(Cl)cncc2Cl)c1F [Compound C-125] | – | protectant activity against corn rust in vivo (corn rust): 100% |
| N#Cc1c(Cl)c(Cl)c(C#N)c(Nc2ccc([N+](=O)[O-])cc2Cl)c1Cl [Compound C-28] | 100 | – |
| Cc1ccccc1Nc1c(Cl)c(Cl)c(C#N)c(Cl)c1C#N [Compound B-1] | – | protectant activity against corn rust in vivo (corn rust): 100% |
| N#Cc1c(Cl)c(Cl)c(Nc2cc([N+](=O)[O-])ccc2Cl)c(Cl)c1C#N [Compound A-16] | 100 | – |
| N#Cc1c(Cl)c(Cl)c(C#N)c(Nc2cc([N+](=O)[O-])ccc2Cl)c1Cl [Compound C-29] | – | protectant activity against corn rust in vivo (corn rust): 80% |
| N#Cc1ccc(Nc2c(Cl)c(Cl)c(C#N)c(Cl)c2C#N)cc1 [Compound B-10] | 100 | – |
| Cc1ccc(Nc2c(Cl)c(Cl)c(C#N)c(C#N)c2Cl)nc1 [Compound A-81] | 100 | – |
| N#Cc1c(Cl)c(Cl)c(Nc2ccc(Br)cn2)c(Cl)c1C#N [Compound A-79] | 100 | protectant activity against cucumber downy mildew in vivo (cucumber downy mildew; dose 100 mg/L): 100% |
| COC(=O)c1ccc(Nc2c(Cl)c(Cl)c(C#N)c(C#N)c2Cl)cc1 [Compound A-11] | 100 | – |
| N#Cc1cc([N+](=O)[O-])cc(Br)c1Nc1c(F)c(F)c(C#N)c(F)c1C#N [Compound B-116] | 100 | – |
| Cc1c(Cl)c([N+](=O)[O-])cc([N+](=O)[O-])c1Nc1c(Cl)c(Cl)c(C#N)c(C#N)c1Cl [Compound A-61] | 100 | – |
| N#Cc1cc(C#N)c(Nc2c(Cl)c(C#N)c(Cl)c(Cl)c2C#N)nc1Cl [Compound C-114] | – | protectant activity against corn rust in vivo (corn rust): 100% |
| N#Cc1ccc(Nc2c(Cl)c(Cl)c(C#N)c(Cl)c2C#N)cc1C(F)(F)F [Compound B-40] | 100 | the protectant activity (%) against cucumber downy mildew (cucumber downy mildew; 12.5 mg/L): 30%; the protectant activity (%) against cucumber downy mildew (cucumber downy mildew; 25 mg/L): 98%; the protectant activity (%) against cucumber downy mildew (cucumber downy mildew; 50 mg/L): 100%; the protectant activity (%) against cucumber downy mildew (cucumber downy mildew; 100 mg/L): 100%; protectant activity against cucumber downy mildew in vivo (cucumber downy mildew; dose 50 mg/L): 100%; protectant activity against cucumber downy mildew in vivo (cucumber downy mildew; dose 100 mg/L): 100% |
| N#Cc1c(Cl)c(Cl)c(Nc2ccc(F)c(F)c2F)c(Cl)c1C#N [Compound A-41] | 100 | – |
| N#Cc1c(F)c(F)c(C#N)c(Nc2c(Cl)cc([N+](=O)[O-])cc2Cl)c1F [Compound C-93] | 100 | – |
| N#Cc1c(F)c(F)c(Nc2c(Br)cc([N+](=O)[O-])cc2Br)c(C#N)c1F [Compound B-115] | 100 | – |
| N#Cc1c(Cl)c(Cl)c(C#N)c(Nc2ccc(OC(F)(F)F)cc2)c1Cl [Compound C-13] | 100 | – |
| N#Cc1c(F)c(F)c(C#N)c(Nc2ccc(Cl)cc2[N+](=O)[O-])c1F [Compound C-89] | – | protectant activity against corn rust in vivo (corn rust): 80% |
| N#Cc1c(Cl)c(Cl)c(C#N)c(Nc2cc(C(F)(F)F)ccc2Cl)c1Cl [Compound C-32] | 100 | – |
| COC(=O)c1ccc(Nc2c(Cl)c(Cl)c(C#N)c(Cl)c2C#N)cc1 [Compound B-13] | 100 | – |
| N#Cc1c(Cl)c(Cl)c(Nc2c(Cl)cncc2Cl)c(C#N)c1Cl [Compound B-139] | 100 | the protectant activity (%) against cucumber downy mildew (cucumber downy mildew; 12.5 mg/L): 100%; the protectant activity (%) against cucumber downy mildew (cucumber downy mildew; 25 mg/L): 98%; the protectant activity (%) against cucumber downy mildew (cucumber downy mildew; 50 mg/L): 98%; the protectant activity (%) against cucumber downy mildew (cucumber downy mildew; 100 mg/L): 100%; protectant activity against cucumber downy mildew in vivo (cucumber downy mildew; dose 12.5 mg/L): 98%; protectant activity against cucumber downy mildew in vivo (cucumber downy mildew; dose 50 mg/L): 98%; protectant activity against cucumber downy mildew in vivo (cucumber downy mildew; dose 100 mg/L): 100% |

| Structure (SMILES) | protectant activity against cucumber downy mildew in vivo (cucumber downy mildew; dose 400 mg/L) [%] | further results |
| --- | --- | --- |
| COc1cc([N+](=O)[O-])ccc1Nc1c(F)c(C#N)c(F)c(F)c1C#N [Compound C-88] | – | protectant activity against cucumber downy mildew in vivo (cucumber downy mildew; dose 50 mg/L): 98% |
| CNC(=O)c1cc(Cl)cc(C)c1Nc1c(Cl)c(C#N)c(Cl)c(Cl)c1C#N [Compound C-56] | 100 | – |
| N#Cc1c(F)c(F)c(C#N)c(Nc2cc([N+](=O)[O-])ccc2Cl)c1F [Compound C-81] | 100 | – |
| N#Cc1ccc(Nc2c(Cl)c(C#N)c(Cl)c(Cl)c2C#N)cc1 [Compound C-12] | 100 | – |
| N#Cc1c(Cl)c(Cl)c(Nc2ccc([N+](=O)[O-])cc2[N+](=O)[O-])c(C#N)c1Cl [Compound B-37] | 100 | – |
| COc1cc([N+](=O)[O-])ccc1Nc1c(Cl)c(C#N)c(Cl)c(Cl)c1C#N [Compound C-35] | 100 | – |
| N#Cc1c(Cl)c(Cl)c(Nc2ccc(C(F)(F)F)cc2Cl)c(Cl)c1C#N [Compound A-17] | 100 | – |
| Cc1cccc(Cl)c1Nc1c(Cl)c(Cl)c(C#N)c(Cl)c1C#N [Compound B-23] | 100 | – |
| Cc1ccnc(Nc2c(Cl)c(Cl)c(C#N)c(C#N)c2Cl)c1 [Compound A-80] | 100 | protectant activity against cucumber downy mildew in vivo (cucumber downy mildew; dose 100 mg/L): 100% |
| N#Cc1c(Cl)c(Cl)c(Nc2ncc(C(F)(F)F)cc2Cl)c(C#N)c1Cl [Compound B-125] | 100 | protectant activity against cucumber downy mildew in vivo (cucumber downy mildew; dose 50 mg/L): 98%; protectant activity against cucumber downy mildew in vivo (cucumber downy mildew; dose 100 mg/L): 100% |
| N#Cc1c(Cl)c(Cl)c(C#N)c(Nc2ccc(C(F)(F)F)cc2Cl)c1Cl [Compound C-30] | 100 | protectant activity against cucumber downy mildew in vivo (cucumber downy mildew; dose 100 mg/L): 90% |
| CNC(=O)c1cc(Cl)cc(C)c1Nc1c(Cl)c(Cl)c(C#N)c(Cl)c1C#N [Compound B-62b] | 100 | – |
| Cc1cc(Cl)ccc1Nc1c(Cl)c(Cl)c(C#N)c(Cl)c1C#N [Compound B-22] | 100 | – |
| N#Cc1c(Cl)c(Cl)c(Nc2cccc(Cl)c2Cl)c(C#N)c1Cl [Compound B-16] | 100 | – |
| N#Cc1c(Cl)c(Cl)c(Nc2c(Br)cc([N+](=O)[O-])cc2Br)c(Cl)c1C#N [Compound A-45] | 100 | protectant activity against cucumber downy mildew in vivo (cucumber downy mildew; dose 25 mg/L): 100%; protectant activity against cucumber downy mildew in vivo (cucumber downy mildew; dose 50 mg/L): 100%; protectant activity against cucumber downy mildew in vivo (cucumber downy mildew; dose 100 mg/L): 100% |
| N#Cc1c(Cl)c(Cl)c(C#N)c(Nc2ccc(F)c(F)c2F)c1Cl [Compound C-51] | 100 | – |
| N#Cc1ccc(Nc2c(Cl)c(Cl)c(C#N)c(C#N)c2Cl)cc1C(F)(F)F [Compound A-27] | 100 | – |
| N#Cc1c(F)c(F)c(C#N)c(Nc2ccc([N+](=O)[O-])cc2F)c1F [Compound C-79] | 100 | – |
| N#Cc1c(Cl)c(Cl)c(Nc2ccc([N+](=O)[O-])cc2F)c(Cl)c1C#N [Compound A-14] | 100 | protectant activity against cucumber downy mildew in vivo (cucumber downy mildew; dose 25 mg/L): 100%; protectant activity against cucumber downy mildew in vivo (cucumber downy mildew; dose 50 mg/L): 100%; protectant activity against cucumber downy mildew in vivo (cucumber downy mildew; dose 100 mg/L): 100% |
| N#Cc1c(Cl)c(Cl)c(Nc2ccc(OC(F)(F)F)cc2)c(C#N)c1Cl [Compound B-12] | 100 | – |
| N#Cc1c(F)c(F)c(Nc2c(Cl)cc([N+](=O)[O-])cc2Cl)c(C#N)c1F [Compound B-109] | 100 | protectant activity against cucumber downy mildew in vivo (cucumber downy mildew; dose 50 mg/L): 100%; protectant activity against cucumber downy mildew in vivo (cucumber downy mildew; dose 100 mg/L): 100% |
| N#Cc1ccc(Nc2c(Cl)c(C#N)c(Cl)c(Cl)c2C#N)cc1C(F)(F)F [Compound C-38] | 100 | protectant activity against cucumber downy mildew in vivo (cucumber downy mildew; dose 100 mg/L): 100% and 90% |
| N#Cc1c(F)c(F)c(Nc2ccc([N+](=O)[O-])cc2Cl)c(C#N)c1F [Compound B-95] | 100 | – |
| N#Cc1c(F)c(F)c(C#N)c(Nc2c(Br)cc([N+](=O)[O-])cc2Br)c1F [Compound C-96] | – | protectant activity against cucumber downy mildew in vivo (cucumber downy mildew; dose 50 mg/L): 98% |
